From publication PMC8566451, “Lead optimization of novel quinolone chalcone compounds by a structure–activity relationship (SAR) study to increase efficacy and metabolic stability” (Scientific Reports, 2021)

What was measured:
[1] = tested on: MDA-MB-231TaxR cells; experiment: Combination of CTR-21 with paclitaxel, combinatorial index; assay type: cell-based, human; conditions: paclitaxel 18.75 nM + CTR-21 23 nM
Method: (§1) (a) CTR-21 kills HeLa in a synergistic manner with ABT-737. Cells were treated with 0.78 nM CTR-21 and indicated concentrations of ABT-737. CI denotes combinatorial index, calculated according to described previously. (b) CTR-21 effectively kills paclitaxel-resistant cells when combined with paclitaxel. The paclitaxel-resistant MDA-MB-231TaxR cells were treated with 23 nM of CTR-21 and indicated concentrations of paclitaxel. TEXT PRINTED IN THE PICTURE: (a) Combo: HeLa: CI: 0.93 (ABT-737 (12.5 μM); CTR-21 (0.78 nM)); HeLa: CI: 0.94 (ABT-737 (6.25 μM); CTR-21 (0.78 nM)); HeLa: CI: 0.81 (ABT-737 (3.125 μM); CTR-21 (0.78 nM)); HeLa: CI: 0.48 (ABT-737 (1.5625 μM); CTR-21 (0.78 nM)) | (b) Combo: MDA-MB-231-TaxR: CI: 0.56 (Paclitaxel (75 nM); CTR-21 (23 nM)); MDA-MB-231-TaxR: CI: 0.38 (Paclitaxel (37.5 nM); CTR-21 (23 nM)); MDA-MB-231-TaxR: CI: 0.35 (Paclitaxel (18.75 nM); CTR-21 (23 nM)) DOUBTS OF THE COPYIST ABOUT THIS PICTURE: Each CI value is printed over a group of three bars (the two single agents and Combo). It is assigned here to the Combo, with the concentrations of the two agents given as conditions.

[2] = tested on: HeLa cells; experiment: Combination of CTR-21 with ABT-737, combinatorial index; assay type: cell-based, human
Method: as §1

[3] = target: tubulin (colchicine binding site) (Sus scrofa, UniProt P02550+P02554); experiment: Colchicine binding site competition assay (fluorescence of tubulin-colchicine complex, modified Dixon plot); conditions: for Ki / mode of inhibition of colchicine binding: modified Dixon plot; for mode of inhibition of colchicine binding: trendlines intersect above the X-axis
Method: (a) CTR-21 and CTR-32 inhibit microtubule polymerization in vitro. Spontaneous polymerization of 20 µM porcine tubulin was initiated with the addition of 1 mmol/L GTP at 37 °C and monitored every minute for 60 min in the presence of the indicated concentration of CTR-21, CTR-32, nocodazole, paclitaxel, or a DMSO vehicle control. To make the graph simpler, only 3 µM concentration is shown. The effects of higher doses are shown in Supplemental Fig. S9. […] Fluorescent intensity was compared to the fluorescence of the tubulin-colchicine complex in absence of CTR-21 or CTR-32 (F0). […] A modified Dixon plot was used to determine the inhibitory concentration of CTR-21 and CTR-32 (Ki).
When we added either CTR-21 or CTR-32 to the colchicine-tubulin complex, we observed a reduction in fluorescence in a dose -dependent manner (Fig. 2b).
Microtubule assembly was assessed using a Tubulin Polymerization assay kit (BK011P; Cytoskeleton Inc., Denver, CO). 20 µM of purified porcine tubulin proteins (> 99% purity) were suspended in G-PEM buffer containing 80 mM PIPES, 2 mM MgCl2, 0.5 mM EGTA, 1 mM GTP (pH 6.9) and 20% glycerol. Polymerization was started by incubating at 37 °C and followed by absorbance readings every 1 min at 340 nm for 1 h using a Synergy H4 plate reader.

Structure (SMILES)	CI (combinatorial index) [1]	CI (combinatorial index) ([2]; ABT-737 1.5625 μM + CTR-21 0.78 nM)	combination index (CI) ([2]; CTR-21 0.78 nM with low doses of ABT-737)	strength of inhibition relative to CTR-32 (Ki ratio) ([3]; CTR-21 versus CTR-32)	Ki [3]	mode of inhibition of colchicine binding [3]
COc1ccccc1C(=O)/C=C/c1cc2cccc(OC)c2[nH]c1=O [CTR-21, (E)-8-methoxy-3-(3-(2-methoxyphenyl)-3-oxoprop-1-enyl) quinolin-2(1H)-one]	0.35	0.48	less than 1.0	about 4.9 times	1.47 µM	competitive inhibitors
CCOc1ccccc1C(=O)/C=C/c1cc2ccccc2[nH]c1=O [CTR-32, (E)-3-(3-(2-ethoxyphenyl)-3-oxoprop-1-enyl)quinolin-2(1H)-one]					7.2 µM	competitive inhibitors
